# Assay results as given in patent US6770303B1, “Use of antifungal and/or antibacterial and/or antiviral compounds” (priority 1998, dated 2004).
# “Also recorded” adds a separate entry of the source. Like-named read-outs stand apart in the source and are kept apart here.
# Tests used:
# [1] = test system: phenylalanine ammonia lyase (PAL); test: PAL activity in tobacco cell cultures after potentiator pretreatment and elicitation; type: cell-based, Nicotiana tabacum
# Procedure: Measurement of the activity of PAL (phenylalanine ammonia lyase): key enzyme in the phenylpropanoid pathway and more particularly in the lignification involved in defense reactions in plants (most particularly in monocotyledon plants).
# (§1) The cell suspensions used are suspensions of Nicotiana tabacum BY (bright yellow) obtained from Washington State University (Pullman, USA). They are cultured in the dark, at 24° C. with agitation (120 rpm) and subcultured every 7 days by transferring 10 ml of culture into 70 ml of fresh medium.
# (§2) The cells are pretreated 5 days after subculturing (end of the exponential growth phase) and elicited on the 6th day. Two hours before pretreatment, 10 ml of cells are transferred into 25 ml conical flasks. For the phenylalanine ammonia lyase (PAL) and lipoxygenase (LOX) activity analyses and the determination of the salicylic acid (SA), the cells are harvested at the desired time by filtration on Whatman 3 M paper, frozen in liquid nitrogen and stored at −80° C. until the analysis.
# The cells (0.5 g) are ground in 0.1 M pH 8.8 borate buffer in the presence of active charcoal and quartz. The grinding ratio is 1/5 (w/v). After centrifugation, 100 μl of cell extract are incubated for 1 h at 37° C. in the presence of 200 μl of 0.1 M pH 8.8 borate buffer and 100 μl of a mixture of 0.1 M pH 8.8 borate buffer and 300 μM L-phenylalanine (labelled and cold mixture); the final solution has a specific activity of 810,000 cpm/ml.
# The reaction is quenched by adding a few drops of 9 N H2SO4. 2 ml of H2O are added. The reaction products are extracted by adding 2 ml of an ether/cyclohexane mixture (1/1, v/v). Since the phenylalanine is insoluble in this mixture, the reaction is counted on 1 ml in the presence of “multi-purpose” scintillation liquid.
# (§3) In all cases, the pretreatment with the potentiator is carried out 18 hours before the elicitor treatment.
# The samples for analysing the physiological effects are taken 4 hours, 12 hours or 24 hours after elicitation. The controls corresponding to a potentiation alone or an elicitation alone are systematically present for each sample taken.
# Erysiphe graminis = test: Open-field test on powdery mildew of wheat by foliar treatment; type: in vivo; details: winter wheat, fosetyl-Al 1000 g/ha a.m., Agrimer 540 1 l/ha
# Procedure: Open-field Test on Powdery Mildew (Erysiphe graminis) of Wheat (Triticum aestivum, Winter Variety) by Foliar Treatment.
# (§4) The fungicide used is fosetyl-Al (WG applied at 1.25 kg/ha, i.e. 1000 g/ha of active material) and the algal extract (solution LC, 1 l/ha) is Agrimer 540 from the company Agrimer.
# All these products are used at a rate of 1000 g/ha and the percentage of plants attacked (% of leaves destroyed) by the disease is determined, on the one hand on a foliar stage treated semi-curatively (reading taken 22 days after the treatment T), and on the other hand on a foliar stage treated curatively (reading taken 27 days after the treatment T).
# tobacco cell cultures = type: cell-based, Nicotiana tabacum
# Source text: Fosetyl-Al and phosphorous acid have mainly been selected as potentiators in the biological experimentation, but, for reasons of toxicity of fosetyl-Al on tobacco cell cultures, we replaced it with fosetyl sodium in the cell tests.
# Erysiphe cichoracerum = test: Open-field trial on powdery mildew of melon by foliar treatment; type: in vivo; details: Agrimer 540 1 l/ha
# Procedure: Open-field Trial on Powdery Mildew (Erysiphe cichoracerum) of Melon (Cucumis melo, Rochet Variety) by Foliar Treatment.
# as §4
# All of these products are used at a dose of 1000 g/ha and the percentage of plants attacked by the disease is determined 15 days after two treatments T1 and T2 (carried out with an interval of 7 days).
# salicylic acid (SA) = test: Salicylic acid (SA) accumulation in tobacco cell cultures; type: cell-based, Nicotiana tabacum
# Procedure: The samples (0.5 g) of tobacco cells or leaves are ground in liquid nitrogen and grinding is then continued in the presence of 0.8 ml of 90% methanol. A known amount of ^14C-labelled SA (1 nCi, 54 mCi/mol, Sigma) is then added in order to estimate the yield for the recovery of the endogenous SA. The amount of labelled SA added is less than the detection threshold for the analysis. […]
# The samples are brought to pH 2 by addition of 2 M HCl and are then heated at 80° C. for one hour. […] 20 ml of this mixture, to which are added 3 ml of scintillation liquid (Ready Gel, Beckmann), are taken for counting of the residual radioactivity, which allows calculation of the SA recovery yield. The contents of total SA determined correspond to the sum of the SA contents in free form and of the SA contents in conjugated form, the SA being released during the hydrolysis.
# The elution is programmed on a Waters HPLC system in an isocratic system for 10 min. […] The SA is quantified by fluorometry (λ excitation=315 nm, λ emission=405 nm). […] The amounts of SA injected are calculated by means of comparing the area of the peaks corresponding to SA with that of the standard molecule injected. The SA contents in the samples are then calculated, taking the recovery yield into account. […]
# lipoxygenase (LOX) = test: LOX activity in tobacco cell cultures after potentiator pretreatment and elicitation; type: cell-based, Nicotiana tabacum; details: for LOX activity relative to the corresponding control: 18 h pretreatment; for LOX activity, potentiator applied alone / Effect on LOX activity, potentiator in itself: no elicitor; for Effect on LOX activity, potentiator in itself: conclusion of Example 1
# Procedure: Measurement of the activity of LOX (lipoxygenase) which is a key enzyme in the synthesis of jasmonic acid, another signal molecule.
# as §1, §2
# The cells (250 mg) are ground in 0.5 ml of extraction buffer in the presence of quartz.
# The ground mixture is centrifuged for 15 min at 4° C. and 13,000 rpm. 2.87 ml of 0.1 M pH 6.8 Tris buffer are added to the cell extract, followed by 30 μl of 10 mM linolenic acid. After stirring, the change in the OD is monitored at 234 nm.
# as §3
# […] The controls corresponding to a potentiation alone or an elicitation alone are systematically present for each sample taken.
# [2] = cells potentiated and elicited with a pectin oligomer, compared with the other conditions
smiles,measurement,setting,value
"CSC(=O)c1cccc2nnsc12 [BTH, reference compound]",PAL activity of potentiated and elicited cells (FIG. 21),[1]; [2],much higher
"CCO[PH](=O)O [Fosetyl-Al, fosetyl-Al]","% of leaves destroyed at T + 22, semi-curative",Erysiphe graminis; untreated control 91.1,77.8%
same,"% of leaves destroyed at T + 27, curative",Erysiphe graminis; untreated control 100,100%
same,Toxicity on tobacco cell cultures,tobacco cell cultures,toxicity
same,"percentage of plants attacked by the disease, % at T2 + 15 days","Erysiphe cichoracerum; T2 7 days after T1, fosetyl-Al 1000 g/ha a.m., untreated control 95.0",80.0%
same,"percentage of plants attacked by the disease, % at T1 + 15 days","Erysiphe cichoracerum; fosetyl-Al 1000 g/ha a.m., untreated control 91.7",80.0%
"OP(O)O [H3PO3, phosphorous acid]",Effect of conditioning on PAL activity after elicitation,[1],strong stimulation of the PAL activity; also recorded: greater than that observed in the unconditioned cells
same,Effect of pretreatment on induction of PAL activity by the elicitor,[1],markedly amplifies the response to the elicitor
same,"Induction of PAL activity, potentiator applied alone",[1],No significant inductive effect; also recorded: do not in themselves have any effect
same,PAL activity of potentiated and elicited cells (FIG. 21),[1],much higher
same,PAL activity of pretreated cells versus unconditioned cells,[1],always greater than that observed in the unconditioned cells
same,PAL activity relative to the level of the unconditioned cells,[1],4 times
same,"Effect on synthesis of SA, potentiator in itself",salicylic acid (SA),do not in themselves have any effect
same,Rate of synthesis of SA relative to unconditioned cells,salicylic acid (SA),large increase
same,LOX activity relative to the corresponding control,lipoxygenase (LOX); measured 12 h after elicitation with 2 nM β-megaspermine,about 28 times
same,LOX activity relative to the corresponding control,lipoxygenase (LOX); measured 21 h after elicitation with 10 μg/ml oligosaccharide elicitor of β-glucan type,about 4 times
same,"LOX activity, potentiator applied alone",lipoxygenase (LOX); 30 h (18 h of pretreatment+12 h) after application,No inductive effect
same,"LOX activity, potentiator applied alone",lipoxygenase (LOX); 39 h (18 h of pretreatment+21 h) after application,mild inductive effect
same,"Effect on LOX activity, potentiator in itself",lipoxygenase (LOX),do not in themselves have any effect
CCO[PH](=O)O [fosetyl-Na],PAL activity of pretreated cells versus unconditioned cells,"[1]; 5 mM conditioning 18 h, then 2 nM β-megaspermine (FIG. 9)",always greater than that observed in the unconditioned cells
same,Effect of conditioning on PAL activity after elicitation,"[1]; 5 mM conditioning 18 h, then 20 μg/ml pectin oligomers",maintains the PAL activity at a high level 11 h after the elicitation
same,PAL activity of potentiated and elicited cells (FIG. 21),[1]; [2],much higher
same,"Induction of PAL activity, potentiator applied alone",[1]; no elicitor,No significant effect; also recorded: do not in themselves have any effect
same,"Effect on synthesis of SA, potentiator in itself","salicylic acid (SA); no elicitor, conclusion of Example 1",do not in themselves have any effect
same,"Effect on LOX activity, potentiator in itself",lipoxygenase (LOX),do not in themselves have any effect
